pEC50, pIC50: −log10 of the molar value.
Experiments:
[1] = tested on: TNFα release in THP-1 cells; assay: LPS-induced TNFα release in THP-1 cells; format: cell-based, human; settings: THP1 cells
Description: THP-1 cells, a human monocytic cell line, were stimulated with 3 μg/mL of LPS (from E. Coli; 0111:B4, Sigma) for 4 hr and the supernatant collected for determination of the TNFα concentration by sandwich ELISA (Duo-set, R&D systems). The inhibition of TNFα production was calculated at each concentration by comparison with vehicle control.

[2] = tested on: TNFα release in d-U937 cells; assay: LPS-induced TNFα release in d-U937 cells; format: cell-based, human; settings: dU937 cells; relative to 10 μg/mL BIRB796; read-out: LPS Induced Release TNFα REC50 (dU937)
Description: (§1) U937 cells, a human monocytic cell line, were differentiated into macrophage-type cells by incubation with PMA (100 ng/mL) for 48 to 72 hr. Cells were pre-incubated with final concentrations of test compound for 2 hr and were then stimulated with LPS (0.1 μg/mL; from E. Coli: 0111:B4, Sigma) for 4 hr. The supernatant was collected for determination of TNFα and IL-8 concentrations by sandwich ELISA (Duo-set, R&D systems). […] The relative 50% effective concentration (REC50) was determined from the resultant concentration-response curve. The inhibition of IL-8 production was calculated at each concentration of test compound by comparison with vehicle control.

[3] = tested on: IL-8 release in d-U937 cells; assay: LPS-induced IL-8 release in d-U937 cells; format: cell-based, human; settings: dU937 cells
Description: as §1, with “Cells were pre-incubated with final concentrations of test compound for 2 hr and were then stimulated with LPS (0.1 μg/mL; from E. Coli: 0111:B4, Sigma) for 4 hr.” left out

[4] = tested on: ICAM-1 expression in BEAS2B cells; assay: Poly I:C-induced ICAM-1 expression in BEAS2B cells; format: cell-based, human; settings: read-out: PolyIC/ICAM1 IC50 (BEAS2B)
How it was run: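 BEAS2B human bronchial epithelial cells pre-incubated 2 h with compound, then transfected with 1 μg/mL poly I:C plus Oligofectamine. After 18 h, surface ICAM-1 measured by cell-based ELISA (OD450–655), normalised to crystal violet cell count (OD595). Inhibition calculated against vehicle control.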

[5] = tested on: HRV IL-8 release (BEAS2B); assay: Rhinovirus-induced IL-8 release in BEAS2B cells; format: cell-based, human; settings: at 0.04 μg/mL
Description: Human rhinovirus RV16 was obtained from the American Type Culture Collection (Manassas, Va.). Viral stocks were generated by infecting Hela cells with HRV until 80% of the cells were cytopathic.
BEAS2B cells were infected with HRV at an MOI of 5 and incubated for 2 hr at 33° C. with gentle shaking for to promote absorption. The cells were then washed with PBS, fresh media added and the cells were incubated for a further 72 hr. The supernatant was collected for assay of IL-8 concentrations using a Duoset ELISA development kit (R&D systems, Minneapolis, Minn.).
The level of cell surface ICAM-1 expression was determined by cell-based ELISA. At 72 hr after infection, cells were fixed with 4% formaldehyde in PBS. After quenching endogenous peroxidase by adding 0.1% sodium azide and 1% hydrogen peroxide, wells were washed with wash-buffer (0.05% Tween in PBS: PBS-Tween). […] The ICAM-1 signal was detected by adding substrate and reading at 450 nm with a reference wavelength of 655 nm using a spectrophotometer. The wells were then washed with PBS-Tween and total cell numbers in each well were determined by reading absorbance at 595 nm after Crystal Violet staining and elution by 1% SDS solution. The measured OD450-655 readings were corrected for cell number by dividing with the OD595 reading in each well. […]

HRV16 = HRV16 induced CPE in MRC5 cells; format: cell-based, human rhinovirus; settings: at 0.04 μg/mL
Description: The supernatants were aspirated, and then fresh media added followed by incubation for 4 days. Where appropriate, cells were pre-incubated with compound or DMSO for 2 hr, and the compounds and DMSO added again after washout of the virus.
The percentage inhibition for each well was calculated. The IC50 value was calculated from the concentration-response curve generated by the serial dilutions of the test compounds.

d-U937 cells = assay: Cell viability: MTT assay; format: cell-based, human; settings: 1 μg/mL
How it was run: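 Differentiated U937 cells exposed to compound at 1 or 10 μg/mL final, either 4 h in 5% FCS RPMI1640 or 24 h in 10% FCS RPMI1640. After medium replacement, MTT added 1 h, formazan dissolved in DMSO, A550 read. % viability loss vs 0.5% DMSO vehicle; apparent viability gain shown as negative %.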

Cc1ccc(-n2nc(C(C)(C)C)cc2NC(=O)Nc2ccc(Oc3ccnc(Nc4ccccc4Cl)n3)c3ccccc23)cc1 [Example 19, 1-(3-(tert-butyl)-1-(p-tolyl)-1H-pyrazol-5-yl)-3-(4-((2-((2-chlorophenyl)amino)pyrimidin-4-yl)oxy)naphthalen-1-yl)urea]
pIC50 [1]: 6.72 | pEC50 [2]: 7.89 | pIC50 [3]: 7.85 | pIC50 [4]: 7.37 | HRV IL-8 (BEAS2B) % inhibition [5]: 100% | HRV CPE (MRC5) % inhibition (HRV16): NE (NE: no effect, ≦0% at 0.04 μg/mL) | MTT Assay Cell viability at time point in d-U937 Cells (d-U937 cells; 4 h): −ve (−ve and +ve indicate the value is below and above respectively, the no significant effect threshold defined as 30% inhibition at 1 μg/mL at the time point indicated) | MTT Assay Cell viability at time point in d-U937 Cells (d-U937 cells; 24 h): −ve (−ve and +ve indicate the value is below and above respectively, the no significant effect threshold defined as 30% inhibition at 1 μg/mL at the time point indicated)
